Earlier results on one substance are cited in patent US9428458B2, “Substituted pyridoxine-lactam carboxylate-salts” (ALCOBRA LTD., priority 2008, dated 2016).

The conditions of the data set: ca. 900 mg daily dose administered intravenously.

“pyridoxine L-2-pyrrolidone-5-carboxylate [metadoxine]”: the “side effects associated with the use of metadoxine” value is “nausea and vomiting”.
